Laboratory results from patent publication US11077115B2, “Rorgamma modulators and uses thereof” (Genfit, priority 2017, dated 2021).

What was measured:
[1] = test system: psoriasis model; conditions: administered by injection; cited from earlier work
[2] = test system: patients with moderate to severe psoriasis; conditions: cited from earlier work
[3] = target: T1, human RORγt (Homo sapiens, UniProt P51449); test: IL-17 secretion from EL4 murine lymphoma overexpressing human RORγt; type: cell-based; parameters: V5-His (named only through the vector pcDNA3.1D/V5-His-TOPO); expressed in transfected cells; conditions: IL-17 secretion inhibition in human RORγt-transfected EL4 Tcells, PMA/ionomycin stimulation
T1 sequence (P51449 1-497 isoform P51449-2): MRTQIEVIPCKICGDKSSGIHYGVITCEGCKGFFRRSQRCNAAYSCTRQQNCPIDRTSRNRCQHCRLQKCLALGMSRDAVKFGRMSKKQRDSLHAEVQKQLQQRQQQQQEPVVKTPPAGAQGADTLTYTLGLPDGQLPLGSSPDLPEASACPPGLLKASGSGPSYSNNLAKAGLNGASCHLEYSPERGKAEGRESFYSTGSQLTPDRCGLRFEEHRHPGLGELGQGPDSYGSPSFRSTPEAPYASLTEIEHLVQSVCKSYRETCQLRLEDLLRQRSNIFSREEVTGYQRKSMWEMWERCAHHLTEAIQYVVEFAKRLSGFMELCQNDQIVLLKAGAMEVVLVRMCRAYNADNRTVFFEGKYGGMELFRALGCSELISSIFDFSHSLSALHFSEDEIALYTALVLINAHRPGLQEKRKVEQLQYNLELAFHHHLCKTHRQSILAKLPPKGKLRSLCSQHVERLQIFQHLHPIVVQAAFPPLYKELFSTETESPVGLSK
Experimental: Murine EL-4 lymphoma cell line overexpressing human RORγt was used in this functional assay to assess compound ability to inhibit IL-17 cytokine secretion.
EL-4 cells are maintained in a standard culture medium RPMI supplemented with 10% fetal calf serum, 1% sodium pyruvate, 1% essential amino acids and 1% antibiotics at 37° C. in a humidified atmosphere of 5% CO2 and 95% air. Culture medium was changed every 2 days. EL4 cells were transfected with a plasmid encoding hRORγt (sequence identical to published sequence NM 001001523). […] Briefly, 1 μg of DNA/1 million cells was served to transfect EL-4 cells. Cell/DNA suspension was transferred into certified cuvette and the electroporation of RORγt plasmid was carried out using appropriate Nucleofector® program.
Cells were seeded in 96 well plates at a density of 150000 cells/well then treated with compounds of this invention at indicated concentrations and incubated for 24 hours at 37° C. in a humidified atmosphere of 5% CO2 and 95% air. EL-4 cells were pretreated with test compounds (RORγ modulators) and stimulated with PMA (10 ng/mL) and ionomycin (1 μM final concentration) in the presence of test compound concentrations for additional 24 h at 37° C. in a humidified atmosphere of 5% CO2 and 95% air. Subsequently, supernatants were collected (after centrifugation at 300 g for 10 minutes) to determine the concentrations of IL-17 by HTRF (CisBio, France) or ELISA (R&D Systems Europe) according to the manufacturer's protocols.

[4] = target: T2, RORγt ligand-binding domain (RORγt-LBD) (Homo sapiens, UniProt P51449); test: Time-resolved FRET (TR-FRET) RORγt coactivator assay (RIP140 peptide displacement); type: biochemical; conditions: ligand-dependent coactivator-RORγt binding
T2 construct: 20 nM recombinantly expressed RORγ-LBD fused to GST
T2 sequence (P51449 269-508 limits assumed): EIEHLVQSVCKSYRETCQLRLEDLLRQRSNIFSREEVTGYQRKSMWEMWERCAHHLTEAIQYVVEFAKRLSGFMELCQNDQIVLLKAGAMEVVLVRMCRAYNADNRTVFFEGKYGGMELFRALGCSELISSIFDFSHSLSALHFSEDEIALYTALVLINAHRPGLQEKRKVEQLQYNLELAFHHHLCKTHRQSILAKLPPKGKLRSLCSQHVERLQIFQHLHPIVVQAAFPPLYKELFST
Procedure, shortened: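 GST-tagged RORγt-LBD (20 nM) with 30 nM biotinylated RIP140 peptide, 1 nM streptavidin-terbium and 20 nM d2-anti-GST in CHAPS buffer with DTT, EDTA, BSA; 1% DMSO. Compounds 0.3 nM–30 μM, 2 h dark, room temperature. Coactivator displacement lowers TR-FRET signal; IC50 (μM) and Emax (%) derived.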

[5] = target: T1, human RORγt; test: RORE Luciferase/RORγt transactivation assay (IL-17 promoter luciferase reporter in COS-7 cells); type: cell-based; parameters: V5-His (named only through the vector pcDNA3.1D/V5-His-TOPO); expressed in transfected cells; host or cells: COS-7 (monkey kidney); conditions: RORγt activity inhibition, luciferase activity in transfected COS-7 cells, 20 h
Procedure, shortened: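 COS-7 cells co-transfected with human RORγt and luciferase reporter driven by 4.3 kb IL-17 promoter with CNS enhancer, seeded in serum-free, phenol red-free DMEM. Compounds added at 0.3% DMSO final; luciferase read by Steady-Glo luminescence. IC50 (μM) and Emax (%) reported.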

[6] = test system: multiple sclerosis model; conditions: administered by injection; cited from earlier work
[7] = relative to placebo, patients with moderate to severe psoriasis

IC50 [3] [nM]	IC50 [4] [nM]	IC50 [5] [nM]	SMILES	further results
–	–	–	Cc1ccc([C@@H](NC(=O)Cc2ccc3oc([C@@H](O)c4c(C)noc4C)cc3c2)c2ccccc2)c(C)c1 [TMP778]	efficacy in psoriasis model [1]: efficacious
–	–	–	CCS(=O)(=O)c1ccc(CNC(=O)c2cnc3c(c2)CN(C[C@H]2CC[C@H](C(F)(F)F)CC2)[C@H]3C(C)C)nc1 [VTP-43742]	reduction in the Psoriasis Area Severity Index (PASI) score relative to placebo ([2]; 350 mg dose group): 24%; placebo-adjusted PASI score reduction ([2]; 700 mg dose group): 30%; Psoriasis Area Severity Index (PASI) score [2, 7]: reduced; plasma IL-17 levels [2, 7]: reduced
100 to 1000	< 1000	100 to 1000	Cc1ccc(C(NC(=O)Cc2cc(N3CCS(=O)(=O)CC3)ccc2C)c2ccc(C)o2)c(N2CC3CC3C2)c1 (stereo not drawn) [Cpd. 28, N-[(2-{3-azabicyclo[3.1.0]hexan-3-yl}-4-methylphenyl)(5-methylfuran-2-yl)methyl]-2-[5-(1,1-dioxo-1-thiomorpholin-4-yl)-2-methylphenyl]acetamide]	–
< 1000	< 1000	< 100	Cc1ccc(C(NC(=O)Cc2ccc(N3CCS(=O)(=O)CC3)cc2C)c2ccc(C)o2)c(N2CCCCC2)c1 (stereo not drawn) [Cpd. 18, 2-[4-(1,1-dioxo-1-thiomorpholin-4-yl)-2-methylphenyl]-N-{[4-methyl-2-(piperidin-1-yl)phenyl](5-methylfuran-2-yl)methyl}acetamide]	–
–	–	–	CC(=O)Nc1nc(C)c(S(=O)(=O)Nc2ccc(C(O)(C(F)(F)F)C(F)(F)F)cc2)s1 [SR1001]	efficacy in multiple sclerosis model [6]: efficacious
